Key:
Format in all cases: in vivo
Xanthomonas campestris = test: Effect on Xanthomonas campestris on Zinnia, foliar spray; details: for Efficacy 12 DAT* (%): 1 spray application, 12 days after treatment, rate per substance as in Table 3
Protocol: Vegetatively mature zinnia plants were treated with pydiflumetofen treatments by foliar spray (for Xanthomonas or Pseudomonas spp.). One to two days post treatment, the plants were atomized with a bacterial suspension (1×10^8 cfu/mL, determined with a spectrometer) and maintained at 100% relative humidity for 24 to 48 hours to promote infection. The plants were then maintained in a greenhouse or outdoor shade structure and disease incidence and severity recorded, as well as plant health and fresh weight if applicable.

Xanthomonas orycea = test: Comparison of SDHI fungicides on Xanthomonas orycea / rice / preventative (bacterial blight of rice); details: for Efficacy (%): rice cv. Balilla, preventative spray, 14 days incubation
Protocol: 3 week old rice plants cv. Balilla were treated with the formulated test compound in a spray chamber. Two days after application rice plants were infected by cutting the upper leaf level and the bacteria suspension applied on the cutting edges. After an incubation period of 14 days at 23° C. and 80% relative humidity, a visual assessment of the disease level was performed.

Xanthomonas perforans = test: Greenhouse test on tomato plants inoculated with Xanthomonas perforans (tomato bacterial spot), injured leaf area; details: up to 18 days after inoculation
Protocol: The experiment was carried out in a greenhouse in the Olericulture Sector of the Federal University of Goiás. The location has temperature and humidity control. Tomato seedlings cv. Totalle with two true leaves were transplanted into 1 L pots containing professional growing media. Two days after transplanting, the first application of the substances was carried out. Bion (acibenzolar-S-methyl, 25 g product/ha—12.5 g ai/ha), Miravis (pydiflumetofen, 0.60 kg product/ha—120 g ai/ha), Kocide (copper hydroxide, 1.50 kg product/ha) and Kasumin (kasugamycin, 2 L product/ha) were evaluated. The untreated control received only water. For application, the pots were placed on the floor and spraying was carried out using a spray device (having 6 nozzles with 0.5 m spacing between nozzles) with a pressurized CO2 sprayer and a spray volume of 300 L/ha.
The applications were carried out on days 1, 7 and 14. On day 9 (between the second and third applications), inoculation with a Xanthomonas perforans isolate was performed. The plants were uniformly sprayed once over all leaves with a suspension of the pathogen at a concentration of […] colony forming units per millilitre (cfu/mL). Three evaluations were performed at 6, 13 and 18 days after inoculation (DAI), and the percentage of injured leaf (area of leaf with bacterial spot) area was calculated.

Ralstonia spp. = test: Effect on Ralstonia spp. on Geranium, drench, wilt
Protocol: Vegetatively mature geranium plants were treated with pydiflumetofen treatments by drench (Ralstonia spp.). One to two days post treatment, the inoculum was applied as a soil-drench. The plants were then maintained in a greenhouse or outdoor shade structure and disease incidence and severity were recorded.

SMILES | Efficacy 12 DAT* (%) (Xanthomonas campestris) | Efficacy (%) (Xanthomonas orycea; 6 Mg ai/L) | Efficacy (%) (Xanthomonas orycea; 20 Mg ai/L) | Efficacy (%) (Xanthomonas orycea; 60 Mg ai/L) | control of Xanthomonas orycea (in words) (Xanthomonas orycea; 6 mg ai/L) | control of Xanthomonas orycea (in words) (Xanthomonas orycea; 20 to 60 mg ai/L) | control of Xanthomonas campestris (in words) (Xanthomonas campestris; spray) | control of Xanthomonas perforans (in words) (Xanthomonas perforans) | control or suppression of Ralstonia spp. (in words) (Ralstonia spp.) | % Wilt 14 DAT (Ralstonia spp.; 14 DAT) [%] | % efficacity vs. inoculated check, 14 DAT (Ralstonia spp.; 14 DAT) [%] | % Wilt 28 DAT (Ralstonia spp.; 28 DAT) [%] | % efficacity vs. inoculated check, 28 DAT (Ralstonia spp.; 28 DAT) [%]
Cn1cc(C(=O)Nc2cccc3c2[C@@H]2CC[C@H]3C2=C(Cl)Cl)c(C(F)F)n1 (racemic) [Benzovindiflupyr, reference compound] | 63 | – | – | – | – | – | – | – | – | – | – | – | –
Cn1cc(C(=O)Nc2ccccc2-c2cc(F)c(F)c(F)c2)c(C(F)F)n1 [Fluxapyroxad] | – | 0 | 0 | 0 | – | – | – | – | – | – | – | – | –
O=C(Nc1ccccc1-c1ccc(Cl)cc1)c1cccnc1Cl [Boscalid] | – | 0 | 0 | 0 | – | – | – | – | – | – | – | – | –
CON(C(=O)c1cn(C)nc1C(F)F)C(C)Cc1c(Cl)cc(Cl)cc1Cl (centres unmarked) [Pydiflumetofen, 3-(difluoromethyl)-N-methoxy-1-methyl-N-[1-methyl-2-(2,4,6-trichloro-phenyl)ethyl]-1H-pyrazole-4-carboxamide] | 84 | 13 | 72 | 99 | marginal effect | good control | good control | good control | control or suppression | 3.5 | 84 | 18 | 87
CC(C)c1ccc(Cl)cc1CN(C(=O)c1c(C(F)F)nn(C)c1F)C1CC1 [Isoflucypram] | – | 0 | 0 | 0 | – | – | – | – | – | – | – | – | –
